Patent US4283418A, “Guanidinobenzoic acid derivatives and process for their preparation” (Ono Pharmaceutical Co., Ltd., priority 1979, dated 1981)
pIC50: −log10 of the molar value.

Experiments:
plasmin = biological target: T1, plasmin (Homo sapiens, UniProt P00747); assay: Inhibition of plasmin in vitro (human euglobulin, streptokinase, fibrinogen); format: biochemical; conditions: borate saline buffer pH 7.4, 37° C., 30 minutes, read-out: 50% Inhibition Concentration Anti-Plasmin
T1 construct: from tissue
Procedure: (§1) The inhibitory activities of representative compounds of the general formula [I] against plasmin and trypsin in vitro were determined in a manner similar to the method described by M. Muramatsu et al J. Biochemistry, 58, 214 (1964) for trypsin and the method described by M. Muramatsu et al ibid, 57, 402 (1965) for plasmin. The procedures used are described more specifically below.
(2) Plasmin: 0.1 ml of human euglobulin (10 fold dilution), 0.1 ml of streptokinase (2000 unit/ml), 0.4 ml of fibrinogen (4% solution), 0.3 ml of a 0.1 M borate saline buffer solution (pH 7.4) and 0.1 ml of a solution of each of the following compounds represented by the general formula [I] at various concentrations was allowed to react at a temperature of 37° C. for 30 minutes.

Solubility in water = format: physicochemical
trypsin = biological target: T2, trypsin (Bos taurus, UniProt P00760); assay: Inhibition of trypsin hydrolysis of p-tosylarginine methyl ester in vitro; format: biochemical; conditions: trypsin 0.5 μg, p-tosylarginine methyl ester 20 mM, Tris-HCl pH 8.5, 37° C., 30 minutes; read-out: 50% Inhibition Concentration Anti-trypsin
T2 sequence (P00760 24-246): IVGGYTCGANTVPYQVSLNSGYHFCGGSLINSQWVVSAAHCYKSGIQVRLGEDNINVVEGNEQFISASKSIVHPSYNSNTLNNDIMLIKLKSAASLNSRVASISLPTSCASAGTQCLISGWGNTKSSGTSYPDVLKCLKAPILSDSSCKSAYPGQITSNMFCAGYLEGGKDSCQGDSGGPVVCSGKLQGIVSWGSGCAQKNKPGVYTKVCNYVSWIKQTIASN
Procedure: as §1
(1) Trypsin: 0.4 ml of trypsin (1.25 μg/ml), 0.5 ml of p-tosylarginine methyl ester (20 mM) in Tris-HCl buffer (pH 8.5) and 0.1 ml of a solution of each of the following compounds represented by the general formula [I] at various concentrations was reacted at a temperature of 37° C. for 30 minutes, and the concentration of each of the test compounds at which the activity of trypsin 0.5 μg to hydrolyze p-tosylarginine methyl ester was inhibited to an extent of 50% is shown in Table 1 below.

T1 sequence (P00747 97-580 limits assumed): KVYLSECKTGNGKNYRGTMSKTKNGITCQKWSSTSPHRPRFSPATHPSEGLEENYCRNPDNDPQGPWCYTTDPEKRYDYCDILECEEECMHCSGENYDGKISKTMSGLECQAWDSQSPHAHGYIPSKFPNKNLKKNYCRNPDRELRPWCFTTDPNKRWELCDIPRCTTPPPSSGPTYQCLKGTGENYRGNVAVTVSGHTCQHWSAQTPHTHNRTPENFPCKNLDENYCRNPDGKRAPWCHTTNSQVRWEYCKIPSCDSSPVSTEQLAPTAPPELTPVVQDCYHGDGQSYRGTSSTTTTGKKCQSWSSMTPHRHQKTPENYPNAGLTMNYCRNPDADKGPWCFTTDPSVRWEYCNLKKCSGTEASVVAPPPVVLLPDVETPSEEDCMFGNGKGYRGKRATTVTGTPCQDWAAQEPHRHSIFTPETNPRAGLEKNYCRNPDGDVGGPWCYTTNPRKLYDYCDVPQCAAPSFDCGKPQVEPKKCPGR
T1 sequence (P00747 581-810 limits assumed): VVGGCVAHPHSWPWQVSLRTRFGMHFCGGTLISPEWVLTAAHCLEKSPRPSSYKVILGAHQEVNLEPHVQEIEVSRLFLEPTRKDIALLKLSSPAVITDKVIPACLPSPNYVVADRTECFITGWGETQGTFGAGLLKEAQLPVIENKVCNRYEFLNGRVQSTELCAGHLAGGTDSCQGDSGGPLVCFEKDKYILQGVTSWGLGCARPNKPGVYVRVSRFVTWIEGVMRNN

pIC50 (plasmin) | solubility (Solubility in water) [mM] | pIC50 (trypsin) | SMILES
8.19 | > 20 | 8.70 | CN(C)S(=O)(=O)c1ccc(OC(=O)c2ccc(NC(=N)N)cc2)cc1 [Compound No. 2]
7.02 | > 20 | 7.96 | CN(C)C(=O)c1ccc(OC(=O)c2ccc(NC(=N)N)cc2)cc1 [Compound No. 6]
8.32 | > 20 | 8.66 | N=C(N)Nc1ccc(C(=O)Oc2ccc(S(N)(=O)=O)cc2)cc1 [Compound No. 3]
8.51 | > 20 | 8.52 | CNS(=O)(=O)c1ccc(OC(=O)c2ccc(NC(=N)N)cc2)cc1 [Compound No. 1]
6.57 | > 20 | 8.47 | CN(C)C(=O)Cc1ccc(OC(=O)c2ccc(NC(=N)N)cc2)cc1 [Compound No. 4]
6.39 | > 20 | 8.04 | CNC(=O)Cc1ccc(OC(=O)c2ccc(NC(=N)N)cc2)cc1 [Compound No. 5]
